In patent publication US7417156B2, “Orally active, antimalarial, anticancer, artemisinin-derived trioxane dimers” (Johns Hopkins University, priority 2002, dated 2008):

Key:
SF-268 = test: NCI 60 cell line panel screen (SRB); type: cell-based, human
SK-MEL-28 = test: NCI 60 cell line panel screen (SRB); type: cell-based, human; conditions: for Log10GI50: Melanoma, SK-MEL-28; for Log10TGI50: TGI: PG=0
SNB-75 = test: NCI 60 cell line panel screen (SRB); type: cell-based, human
NCI/ADR-RES = test: NCI 60 cell line panel screen (SRB); type: cell-based, human; conditions: for Log10GI50: Breast Cancer, NCI/ADR-RES; for Log10TGI50: TGI: PG=0
M14 = test: NCI 60 cell line panel screen (SRB); type: cell-based, human; conditions: for Log10TGI50: M-14 (Melanoma), TGI: PG=0; for Log10GI50: Melanoma, M14
MCF7 = test: NCI 60 cell line panel screen (SRB); type: cell-based, human; conditions: for Log10GI50: Breast Cancer, MCF7; for Log10TGI50: TGI: PG=0
EKVX = test: NCI 60 cell line panel screen (SRB); type: cell-based, human; conditions: for Log10TGI50: TGI: PG=0; for Log10GI50: Non-Small Cell Lung Cancer, EKVX
COLO 205 = test: NCI 60 cell line panel screen (SRB); type: cell-based, human; conditions: for Log10TGI50: TGI: PG=0
NCI-H522 = test: NCI 60 cell line panel screen (SRB); type: cell-based, human; conditions: for Log10TGI50: NCI-H522 (Non-Small Cell Lung Cancer), TGI: PG=0; for Log10GI50: Non-Small Cell Lung Cancer, NCI-H522
[1] = system: chloroquine-sensitive P. falciparum (NF54); test: Antimalarial activity in vitro, [3H]hypoxanthine incorporation; type: cell-based; conditions: Table I; NF54 strain; read-out: IC50
MALME-3M = test: NCI 60 cell line panel screen (SRB); type: cell-based, human; conditions: for Log10TGI50: TGI: PG=0
HT29 = test: NCI 60 cell line panel screen (SRB); type: cell-based, human; conditions: for Log10TGI50: TGI: PG=0
MDA-MB-435 = test: NCI 60 cell line panel screen (SRB); type: cell-based, human; conditions: for Log10GI50: Breast Cancer, MDA-MB-435; for Log10TGI50: TGI: PG=0
UACC-257 = test: NCI 60 cell line panel screen (SRB); type: cell-based, human; conditions: for Log10TGI50: TGI: PG=0
K-562 = test: NCI 60 cell line panel screen (SRB); type: cell-based, human; conditions: for Log10TGI50: TGI: PG=0
HOP-62 = test: NCI 60 cell line panel screen (SRB); type: cell-based, human; conditions: for Log10TGI50: TGI: PG=0; for Log10GI50: Non-Small Cell Lung Cancer, HOP-62
A549/ATCC = test: NCI 60 cell line panel screen (SRB); type: cell-based, human; conditions: for Log10TGI50: TGI: PG=0; for Log10GI50: Non-Small Cell Lung Cancer, A549/ATCC
HCT-116 = test: NCI 60 cell line panel screen (SRB); type: cell-based, human; conditions: for Log10TGI50: TGI: PG=0
HCT-15 = test: NCI 60 cell line panel screen (SRB); type: cell-based, human; conditions: for Log10TGI50: TGI: PG=0
NCI-H460 = test: NCI 60 cell line panel screen (SRB); type: cell-based, human; conditions: for Log10TGI50: TGI: PG=0
786-0 = test: NCI 60 cell line panel screen (SRB); type: cell-based, human; conditions: for Log10TGI50: TGI: PG=0; for Log10GI50: Renal Cancer, 786-0
CAKI-1 = test: NCI 60 cell line panel screen (SRB); type: cell-based, human; conditions: for Log10TGI50: TGI: PG=0; for Log10GI50: Renal Cancer, CAKI-1
SK-OV-3 = test: NCI 60 cell line panel screen (SRB); type: cell-based, human; conditions: for Log10TGI50: TGI: PG=0
[2] = EKVX (Non-Small Cell Lung Cancer)
[3] = HOP-62 (Non-Small Cell Lung Cancer)
[4] = A549/ATCC (Non-Small Cell Lung Cancer)
[5] = NCI-H460 (Non-Small Cell Lung Cancer)

C[C@@H]1CC[C@H]2[C@@H](C)C(CC(O)(CC3OC4O[C@]5(C)CC[C@H]6[C@H](C)CC[C@@H]([C@H]3C)C46OO5)c3ccc(C(=O)O)cc3)OC3O[C@]4(C)CCC1C32OO4 (stereo partly drawn) [Compound 11b, bis-trioxane tertiary alcohol benzoic acid]
Log10GI50 (SF-268; CNS Cancer, SF-268): −7.72 | Log10LC50 (SF-268; SF-268 (CNS Cancer), LC50: PG=−50): >−4.30 log10M | Log10TGI50 (SF-268; SF-268 (CNS Cancer), TGI: PG=0): >−4.30 log10M | Log10GI50 (SK-MEL-28): −6.40 | Log10LC50 (SK-MEL-28; SK-MEL-28 (Melanoma), LC50: PG=−50): >−4.30 log10M | Log10TGI50 (SK-MEL-28; SK-MEL-28 (Melanoma)): >−4.30 log10M | Log10GI50 (SNB-75; CNS Cancer, SNB-75): −7.40 | Log10LC50 (SNB-75; SNB-75 (CNS Cancer), LC50: PG=−50): >−4.30 log10M | Log10TGI50 (SNB-75; SNB-75 (CNS Cancer), TGI: PG=0): >−4.30 log10M | Log10GI50 (NCI/ADR-RES): −6.84 | Log10LC50 (NCI/ADR-RES; NCI/ADR-RES (Breast Cancer), LC50: PG=−50): >−4.30 log10M | Log10TGI50 (NCI/ADR-RES; NCI/ADR-RES (Breast Cancer)): >−4.30 log10M | Log10LC50 (M14; M14 (Melanoma), LC50: PG=−50): >−4.30 log10M | Log10TGI50 (M14): >−4.30 log10M | Log10GI50 (M14): −7.81 | Log10GI50 (MCF7): <−8.30 | Log10LC50 (MCF7; MCF7 (Breast Cancer), LC50: PG=−50): >−4.30 log10M | Log10TGI50 (MCF7; MCF7 (Breast Cancer)): >−4.30 log10M | Log10LC50 (EKVX; EKVX (Non-Small Cell Lung Cancer), LC50: PG=−50): >−4.30 log10M | Log10TGI50 (EKVX; [2]): >−4.30 log10M | Log10GI50 (EKVX): −4.79 | Log10LC50 (COLO 205; COLO 205 (Colon Cancer), LC50: PG=−50): −5.28 log10M | Log10TGI50 (COLO 205; COLO 205 (Colon Cancer)): −6.99 log10M | Log10GI50 (COLO 205; Colon Cancer, COLO 205): <−8.30 | Log10TGI50 (NCI-H522): >−4.30 log10M | Log10LC50 (NCI-H522; NCI-H-522 (Non-Small Cell Lung Cancer), LC50: PG=−50): >−4.30 log10M | Log10GI50 (NCI-H522): −6.54 | IC50 [1]: 2.1 nM | Log10LC50 (MALME-3M; MALME-3M (Melanoma), LC50: PG=−50): >−4.30 log10M | Log10TGI50 (MALME-3M; MALME-3M (Melanoma)): −7.46 log10M | Log10GI50 (MALME-3M; Melanoma, MALME-3M): <−8.30 | Log10GI50 (HT29; Colon Cancer, HT29): <−8.30 | Log10LC50 (HT29; HT29 (Colon Cancer), LC50: PG=−50): >−4.30 log10M | Log10TGI50 (HT29; HT29 (Colon Cancer)): >−4.30 log10M | Log10GI50 (MDA-MB-435): −8.16 | Log10LC50 (MDA-MB-435; MDA-MB-435 (Breast Cancer), LC50: PG=−50): >−4.30 log10M | Log10TGI50 (MDA-MB-435; MDA-MB-435 (Breast Cancer)): >−4.30 log10M | Log10LC50 (UACC-257; UACC-257 (Melanoma), LC50: PG=−50): >−4.30 log10M | Log10TGI50 (UACC-257; UACC-257 (Melanoma)): >−4.30 log10M | Log10LC50 (K-562; K-562 (Leukemia), LC50: PG=−50): >−4.30 log10M | Log10TGI50 (K-562; K-562 (Leukemia)): >−4.30 log10M | Log10GI50 (K-562; Leukemia, K-562): <−8.30 | Log10LC50 (HOP-62; HOP-62 (Non-Small Cell Lung Cancer), LC50: PG=−50): >−4.30 log10M | Log10TGI50 (HOP-62; [3]): >−4.30 log10M | Log10GI50 (HOP-62): −6.96 | Log10LC50 (A549/ATCC; A549/ATCC (Non-Small Cell Lung Cancer), LC50: PG=−50): >−4.30 log10M | Log10TGI50 (A549/ATCC; [4]): >−4.30 log10M | Log10GI50 (A549/ATCC): −5.69 | Log10GI50 (HCT-116; Colon Cancer, HCT-116): <−8.30 | Log10LC50 (HCT-116; HCT-116 (Colon Cancer), LC50: PG=−50): >−4.30 log10M | Log10TGI50 (HCT-116; HCT-116 (Colon Cancer)): −4.40 log10M | Log10GI50 (HCT-15; Colon Cancer, HCT-15): <−8.30 | Log10LC50 (HCT-15; HCT-15 (Colon Cancer), LC50: PG=−50): >−4.30 log10M | Log10TGI50 (HCT-15; HCT-15 (Colon Cancer)): −6.70 log10M | Log10LC50 (NCI-H460; NCI-H460 (Non-Small Cell Lung Cancer), LC50: PG=−50): >−4.30 log10M | Log10TGI50 (NCI-H460; [5]): >−4.30 log10M | Log10GI50 (NCI-H460; Non-Small Cell Lung Cancer, NCI-H460): <−8.30 | Log10LC50 (786-0; 786-0 (Renal Cancer), LC50: PG=−50): >−4.30 log10M | Log10TGI50 (786-0; 786-0 (Renal Cancer)): >−4.30 log10M | Log10GI50 (786-0): −7.17 | Log10LC50 (CAKI-1; CAKI-1 (Renal Cancer), LC50: PG=−50): −4.44 log10M | Log10TGI50 (CAKI-1; CAKI-1 (Renal Cancer)): −6.91 log10M | Log10GI50 (CAKI-1): −7.74 | Log10LC50 (SK-OV-3; SK-OV-3 (Ovarian Cancer), LC50: PG=−50): >−4.30 log10M | Log10TGI50 (SK-OV-3; SK-OV-3 (Ovarian Cancer)): >−4.30 log10M

CC1CCC2C(C)C(CC(COCC(=O)O)CC3OC4OC5(C)CCC6C(C)CCC(C3C)C46OO5)OC3OC4(C)CCC1C32OO4 (stereo not drawn) [Compound 12b, bis-trioxane O-acetic acid]
Log10GI50 (SK-MEL-28): −4.92 | Log10TGI50 (SK-MEL-28; SK-MEL-28 (Melanoma)): >−4.30 log10M | Log10GI50 (NCI/ADR-RES): −6.45 | Log10TGI50 (NCI/ADR-RES; NCI/ADR-RES (Breast Cancer)): >−4.30 log10M | Log10TGI50 (M14): >−4.30 log10M | Log10GI50 (M14): −6.68 | Log10GI50 (MCF7): −7.37 | Log10TGI50 (MCF7; MCF7 (Breast Cancer)): >−4.30 log10M | Log10TGI50 (EKVX; [2]): >−4.30 log10M | Log10GI50 (EKVX): >−4.30 | Log10TGI50 (COLO 205; COLO 205 (Colon Cancer)): −5.28 log10M | Log10TGI50 (NCI-H522): >−4.30 log10M | Log10GI50 (NCI-H522): >−4.30 | IC50 [1]: 3.2 nM | Log10TGI50 (MALME-3M; MALME-3M (Melanoma)): −6.40 log10M | Log10TGI50 (HT29; HT29 (Colon Cancer)): >−4.30 log10M | Log10GI50 (MDA-MB-435): −6.97 | Log10TGI50 (MDA-MB-435; MDA-MB-435 (Breast Cancer)): >−4.30 log10M | Log10GI50 (UACC-257; Melanoma, UACC-257): >−4.30 | Log10TGI50 (UACC-257; UACC-257 (Melanoma)): >4.30 log10M | Log10TGI50 (K-562; K-562 (Leukemia)): >−4.30 log10M | Log10TGI50 (HOP-62; [3]): >−4.30 log10M | Log10GI50 (HOP-62): −6.23 | Log10TGI50 (A549/ATCC; [4]): >−4.30 log10M | Log10GI50 (A549/ATCC): >−4.30 | Log10TGI50 (HCT-116; HCT-116 (Colon Cancer)): >−4.30 log10M | Log10TGI50 (HCT-15; HCT-15 (Colon Cancer)): −5.00 log10M | Log10TGI50 (NCI-H460; [5]): >−4.30 log10M | Log10TGI50 (786-0; 786-0 (Renal Cancer)): >−4.30 log10M | Log10GI50 (786-0): −6.59 | Log10TGI50 (CAKI-1; CAKI-1 (Renal Cancer)): −6.40 log10M | Log10GI50 (CAKI-1): −6.91 | Log10GI50 (SK-OV-3; Ovarian Cancer, SK-OV-3): >−4.30 | Log10TGI50 (SK-OV-3; SK-OV-3 (Ovarian Cancer)): >−4.30 log10M
